Data as given in patent US20060211761A1, “Hmg-coa-reductase inhibitors” (priority 2002, published 2006).
Counter-ions that a name gives are not always drawn.

How the values were obtained:
[1] = molecular target: HMG-CoA reductase; assay: in-vitro HMG-CoA reductase enzyme assay ([14C]mevalonate formation, liver microsomes), Table 1; format: biochemical; settings: preincubated 37° C. 30 minutes, [14C] HMG-CoA substrate
Procedure: (§1) Res. Comm., 50, 859 (1973).
(§2) HMG-CoA reductase is regarded as a rate-limiting enzyme in cholesterol biosynthesis, catalyzing the following reaction: [^14C]HMG-CoA+2NADPH+2H+[^14C]mevanolate+CoA+2NADP+microsomes, utilizing 2.5 mM [^14C] HMG-CoA as a substrate.
(§3) The reaction was carried out in presence of 100 mM KH2PO4, 20 mM G-6-P, 2.5 mM NADPH, 10 mM EDTA, 5 mM DTT and […], at 37° C. for 15 minutes and quantitating [^14C] mevalonate as an end product.

[2] = molecular target: HMG CoA Reductase; assay: HMG CoA reductase inhibition, similar experiments with phenylhydroxy compounds of U.S. Pat. No. 5,385,929, Table 2; format: biochemical; settings: compared to atorvastatin
Procedure: as §1, §2, §3

| SMILES | IC50 [2] [nM] | IC50 [1] [nM] |
| --- | --- | --- |
| COc1cc(NC(=O)c2c(-c3ccccc3)c(-c3ccc(F)cc3)n(CC[C@@H](O)C[C@@H](O)CC(=O)O)c2C(C)C)cc(OC)c1 [Example 1, 7-[3-(3,5-dimethoxyphenylcarbamoyl)-5-(4-fluorophenyl)-2-(1-methylethyl)4-phenyl-pyrrol-1-yl]-3R,5R-dihydroxy-heptanoic acid calcium salt] | – | 0.022 |
| COc1ccc(NC(=O)c2c(-c3ccccc3)c(-c3ccc(F)cc3)n(CC[C@@H](O)C[C@@H](O)CC(=O)O)c2C2CC2)c(OC)c1 [S.No. 3, 7-[3-(2,4-dimethoxyphenylcarbamoyl)-5-(4-fluorophenyl)-2-(cyclopropyl)-4-phenyl-pyrrol-1-yl]-3R,5R-dihydroxy-heptanoic acid calcium salt] | – | 0.00948 |
| COc1ccc(NC(=O)c2c(-c3ccccc3)c(-c3ccccc3)n(CC[C@@H](O)C[C@@H](O)CC(=O)O)c2C(C)C)c(OC)c1 [S.No. 5, 7-[3-(2.4-dimethoxyphenylcarbamoyl)-4.5-diphenyl-2-(1-methylethyl-pyrrol-1-yl]-3R,5R-dihydroxy-heptanoic acid calcium salt] | – | 0.0563 |

Further lines, with some results ahead:

| IC50 [2] [nM] | SMILES | IC50 [1] [nM] |
| --- | --- | --- |
| 0.199 | CC(C)c1c(C(=O)Nc2cccc(O)c2)c(-c2ccccc2)c(-c2ccc(F)cc2)n1CCC(O)CC(O)CC(=O)O (stereo not drawn) [Meta-hydroxyatorvastatin] | – |
| 0.264 | CC(C)c1c(C(=O)Nc2ccccc2O)c(-c2ccccc2)c(-c2ccc(F)cc2)n1CC[C@@H](O)C[C@@H](O)CC(=O)O [Ortho-hydroxyatorvastatin] | – |
| 0.476 | CC(C)c1c(C(=O)Nc2ccc(O)cc2)c(-c2ccccc2)c(-c2ccc(F)cc2)n1CC[C@@H](O)C[C@@H](O)CC(=O)O [Para-hydroxyatorvastatin] | – |
